Patent US9340590B2 (priority 2011, dated 2016)
Read-outs that look alike come from different tables or passages of the source. Positions of bridges follow the written chain, without caps; N, C: chain ends. Non-standard residues stand in square brackets, D forms with d. Residues, ends and D or L forms follow the SMILES beside them. 1Nal = N[C@@H](Cc1cccc2ccccc12)C(=O)O

Assays:
Experiment in all cases: cell-based
[1] = target: hNav1.7 (Homo sapiens, UniProt Q15858); format: cell-based
[2] = target: hNav1.5 (Homo sapiens, UniProt Q14524); details: IonWorks Quattro, read-out: IWQ Use Nav1.5
[3] = target: hNav1.3 (Homo sapiens, UniProt Q9NY46); details: IonWorks Quattro, read-out: IWQ Use Nav1.3
Sequence of hNav1.3 (Q9NY46 whole entry, looked up): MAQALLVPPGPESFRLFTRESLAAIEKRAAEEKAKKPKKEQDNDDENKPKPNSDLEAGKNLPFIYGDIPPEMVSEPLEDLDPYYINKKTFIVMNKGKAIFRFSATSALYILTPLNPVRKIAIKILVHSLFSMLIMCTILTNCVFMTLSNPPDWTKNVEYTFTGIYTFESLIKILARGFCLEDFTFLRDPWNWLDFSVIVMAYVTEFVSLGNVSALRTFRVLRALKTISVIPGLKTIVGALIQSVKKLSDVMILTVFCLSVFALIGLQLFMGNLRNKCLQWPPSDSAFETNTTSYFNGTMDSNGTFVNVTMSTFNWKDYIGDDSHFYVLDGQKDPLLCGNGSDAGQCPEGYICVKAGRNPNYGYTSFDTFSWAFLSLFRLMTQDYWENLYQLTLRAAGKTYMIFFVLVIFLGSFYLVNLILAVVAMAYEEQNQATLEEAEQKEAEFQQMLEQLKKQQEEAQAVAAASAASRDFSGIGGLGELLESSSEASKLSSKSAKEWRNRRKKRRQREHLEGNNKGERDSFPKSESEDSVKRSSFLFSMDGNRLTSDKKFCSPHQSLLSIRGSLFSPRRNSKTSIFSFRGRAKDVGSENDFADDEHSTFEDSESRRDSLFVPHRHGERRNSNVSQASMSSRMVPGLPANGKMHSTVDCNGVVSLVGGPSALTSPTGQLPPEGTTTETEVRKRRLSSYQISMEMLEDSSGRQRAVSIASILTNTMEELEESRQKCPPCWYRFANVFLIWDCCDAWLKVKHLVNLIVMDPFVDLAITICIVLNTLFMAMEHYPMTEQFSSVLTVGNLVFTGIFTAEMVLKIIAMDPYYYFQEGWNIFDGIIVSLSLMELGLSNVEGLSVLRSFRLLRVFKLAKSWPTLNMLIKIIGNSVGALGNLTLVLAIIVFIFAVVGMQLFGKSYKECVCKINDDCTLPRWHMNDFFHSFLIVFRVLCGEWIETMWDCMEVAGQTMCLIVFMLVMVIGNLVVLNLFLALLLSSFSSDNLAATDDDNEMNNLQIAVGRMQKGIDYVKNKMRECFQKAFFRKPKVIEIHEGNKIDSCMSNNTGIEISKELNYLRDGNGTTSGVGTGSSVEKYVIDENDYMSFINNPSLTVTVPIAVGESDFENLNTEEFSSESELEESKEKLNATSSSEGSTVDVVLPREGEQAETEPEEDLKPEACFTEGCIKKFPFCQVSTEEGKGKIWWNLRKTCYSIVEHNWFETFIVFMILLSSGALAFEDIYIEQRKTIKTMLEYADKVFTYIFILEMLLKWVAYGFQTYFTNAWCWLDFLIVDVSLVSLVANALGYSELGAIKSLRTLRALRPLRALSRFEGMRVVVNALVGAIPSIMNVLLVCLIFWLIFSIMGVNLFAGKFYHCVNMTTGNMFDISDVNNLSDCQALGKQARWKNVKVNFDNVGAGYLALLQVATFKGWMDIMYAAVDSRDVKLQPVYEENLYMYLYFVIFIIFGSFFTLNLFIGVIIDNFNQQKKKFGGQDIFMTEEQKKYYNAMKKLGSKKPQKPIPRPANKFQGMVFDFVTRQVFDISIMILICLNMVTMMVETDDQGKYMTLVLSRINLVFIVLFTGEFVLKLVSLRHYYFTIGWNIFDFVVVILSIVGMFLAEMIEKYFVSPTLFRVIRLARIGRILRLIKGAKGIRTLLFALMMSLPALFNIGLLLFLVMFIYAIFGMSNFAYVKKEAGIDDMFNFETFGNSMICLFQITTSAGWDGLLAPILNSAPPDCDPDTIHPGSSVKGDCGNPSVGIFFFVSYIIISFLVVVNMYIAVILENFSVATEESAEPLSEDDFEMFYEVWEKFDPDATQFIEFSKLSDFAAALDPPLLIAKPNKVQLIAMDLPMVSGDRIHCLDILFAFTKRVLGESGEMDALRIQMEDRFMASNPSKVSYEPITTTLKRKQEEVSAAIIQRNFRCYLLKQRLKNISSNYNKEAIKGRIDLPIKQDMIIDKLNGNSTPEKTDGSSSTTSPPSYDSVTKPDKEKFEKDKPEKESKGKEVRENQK

Sequence of hNav1.7 (Q15858 whole entry, looked up): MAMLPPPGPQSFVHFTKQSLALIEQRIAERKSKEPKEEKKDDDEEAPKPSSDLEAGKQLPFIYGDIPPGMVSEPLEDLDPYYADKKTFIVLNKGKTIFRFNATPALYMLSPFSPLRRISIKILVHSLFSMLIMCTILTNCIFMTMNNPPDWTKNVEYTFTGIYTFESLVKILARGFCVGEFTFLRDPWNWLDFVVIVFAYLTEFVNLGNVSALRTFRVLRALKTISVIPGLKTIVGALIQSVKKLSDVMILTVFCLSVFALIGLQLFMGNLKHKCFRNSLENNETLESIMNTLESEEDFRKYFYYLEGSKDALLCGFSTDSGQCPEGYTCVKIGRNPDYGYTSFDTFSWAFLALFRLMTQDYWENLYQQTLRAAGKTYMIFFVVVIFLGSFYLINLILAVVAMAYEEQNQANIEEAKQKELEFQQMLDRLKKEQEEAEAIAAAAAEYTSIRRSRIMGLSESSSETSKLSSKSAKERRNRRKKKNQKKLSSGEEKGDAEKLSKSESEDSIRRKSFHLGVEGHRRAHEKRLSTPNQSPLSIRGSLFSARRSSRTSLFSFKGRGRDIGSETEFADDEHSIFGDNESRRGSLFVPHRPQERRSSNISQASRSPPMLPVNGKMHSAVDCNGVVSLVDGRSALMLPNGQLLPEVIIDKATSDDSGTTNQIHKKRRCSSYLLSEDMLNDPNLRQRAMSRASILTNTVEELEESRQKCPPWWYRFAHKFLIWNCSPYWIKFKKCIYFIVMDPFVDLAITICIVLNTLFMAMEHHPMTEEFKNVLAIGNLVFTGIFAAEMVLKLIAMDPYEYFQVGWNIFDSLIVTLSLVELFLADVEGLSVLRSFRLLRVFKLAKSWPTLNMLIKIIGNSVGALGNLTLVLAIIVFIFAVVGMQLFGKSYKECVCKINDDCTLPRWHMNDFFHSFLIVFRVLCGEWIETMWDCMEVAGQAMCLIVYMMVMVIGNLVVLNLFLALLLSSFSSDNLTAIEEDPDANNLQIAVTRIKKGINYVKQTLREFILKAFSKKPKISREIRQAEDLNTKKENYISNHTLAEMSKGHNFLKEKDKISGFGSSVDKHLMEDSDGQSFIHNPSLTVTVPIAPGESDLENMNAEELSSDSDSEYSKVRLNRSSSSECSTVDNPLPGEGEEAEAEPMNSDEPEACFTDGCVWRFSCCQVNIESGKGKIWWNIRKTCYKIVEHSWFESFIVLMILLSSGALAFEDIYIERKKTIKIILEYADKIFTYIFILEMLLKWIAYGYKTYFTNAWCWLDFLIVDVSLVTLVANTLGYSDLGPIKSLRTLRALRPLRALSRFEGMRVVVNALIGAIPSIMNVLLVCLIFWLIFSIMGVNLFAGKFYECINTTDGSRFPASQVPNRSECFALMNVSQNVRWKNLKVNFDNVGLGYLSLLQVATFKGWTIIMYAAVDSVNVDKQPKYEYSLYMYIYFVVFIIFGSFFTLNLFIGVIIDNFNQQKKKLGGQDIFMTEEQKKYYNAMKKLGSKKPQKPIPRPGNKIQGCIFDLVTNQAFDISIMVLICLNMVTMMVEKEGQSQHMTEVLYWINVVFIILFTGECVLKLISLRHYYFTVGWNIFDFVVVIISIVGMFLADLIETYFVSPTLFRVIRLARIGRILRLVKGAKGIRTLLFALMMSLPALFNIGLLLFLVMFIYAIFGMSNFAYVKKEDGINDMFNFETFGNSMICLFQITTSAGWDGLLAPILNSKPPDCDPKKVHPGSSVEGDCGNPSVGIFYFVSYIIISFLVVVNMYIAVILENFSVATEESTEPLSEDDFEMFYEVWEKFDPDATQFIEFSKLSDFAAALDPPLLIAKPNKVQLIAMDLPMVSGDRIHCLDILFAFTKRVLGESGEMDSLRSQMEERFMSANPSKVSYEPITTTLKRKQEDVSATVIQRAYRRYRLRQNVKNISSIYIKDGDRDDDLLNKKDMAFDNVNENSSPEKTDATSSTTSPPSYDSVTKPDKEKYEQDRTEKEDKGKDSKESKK

Question: With CC[C@H](C)[C@@H]1NC(=O)[C@@H]2CSSC[C@@H]3NC(=O)[C@H](C(C)C)NC(=O)[C@H](CC(C)C)NC(=O)[C@H](CC(N)=O)NC(=O)[C@@H]4CCCN4C(=O)[C@H](CCCNC(=N)N)NC(=O)[C@H](CSSC[C@H](NC(=O)[C@@H](N)CC(=O)O)C(=O)N[C@@H](CC(C)C)C(=O)NCC(=O)N[C@@H](Cc4ccccc4)C(=O)N[C@@H](CCSC)C(=O)N[C@@H](CCCNC(=N)N)C(=O)N[C@@H](CCCCN)C(=O)N2)NC(=O)[C@H](CSSC[C@@H](C(=O)N[C@@H](CCCCN)C(=O)N[C@@H](Cc2ccc(O)cc2)C(=O)N[C@@H](CCC(N)=O)C(=O)N[C@@H](Cc2ccccc2)C(N)=O)NC(=O)[C@H](Cc2c[nH]c4ccccc24)NC(=O)[C@H](CCCCN)NC(=O)[C@H](Cc2c[nH]cn2)NC(=O)[C@H]([C@@H](C)O)NC(=O)[C@H](CCCNC(=N)N)NC(=O)[C@H](CO)NC3=O)NC(=O)[C@H](CCCCN)NC(=O)[C@H](CC(=O)O)NC(=O)[C@H](CC(N)=O)NC(=O)[C@H](CC(=O)O)NC(=O)[C@@H]2CCCN2C1=O [compound 95] (H-DCLGFMRKCIPDNDKCCRPNLVCSRTHKWCKYQF-NH2; disulfide 2-17, 9-23, 16-30) as the compound, how does the IC50 ([1]; Table 26, IonWorks Quattro, use, […], read-out: IWQ Use Nav1.7) read?
Answer: 120 nM

Question: What about the IC50 ([2]; Table 26, use, […]) of the same compound?
Answer: 10600 nM

Question: And the IC50 ([3]; Table 26, use, […])?
Answer: 110 nM

Question: With CC[C@H](C)[C@H](NC(=O)[C@@H](NC(=O)[C@H](Cc1ccc(O)cc1)NC(=O)[C@H](CCCCN)NC(=O)[C@@H]1CSSC[C@@H]2NC(=O)[C@H](CCCCN)NC(=O)[C@H](CC(=O)O)NC(=O)[C@H](CC(N)=O)NC(=O)[C@H](CC(=O)O)NC(=O)[C@@H]3CCCN3C(=O)[C@H]([C@@H](C)CC)NC(=O)[C@@H]3CSSC[C@H](NC(=O)[C@H](C(C)C)NC(=O)[C@H](CC(C)C)NC(=O)[C@H](CC(N)=O)NC(=O)[C@@H]4CCCN4C(=O)[C@H](CCCNC(=N)N)NC(=O)[C@H](CSSC[C@H](NC(=O)[C@@H](N)CC(=O)O)C(=O)N[C@@H](CC(C)C)C(=O)NCC(=O)N[C@@H](Cc4ccccc4)C(=O)N[C@@H](CCSC)C(=O)N[C@@H](CCCNC(=N)N)C(=O)N[C@@H](CCCCN)C(=O)N3)NC2=O)C(=O)N[C@@H](CO)C(=O)N[C@@H](CCCNC(=N)N)C(=O)N[C@@H]([C@@H](C)O)C(=O)N[C@@H](Cc2c[nH]cn2)C(=O)N[C@@H](CCCCN)C(=O)N[C@@H](Cc2c[nH]c3ccccc23)C(=O)N1)C(C)C)C(N)=O [compound 96] (H-DCLGFMRKCIPDNDKCCRPNLVCSRTHKWCKYVI-NH2; disulfide 2-17, 9-23, 16-30) as the compound, how does the IC50 ([1]; IonWorks Quattro, use-dependent, […], read-out: IWQ Use Nav1.7) read?
Answer: 280 nM

Question: And the IC50 ([2]; use-dependent, […])?
Answer: 10800 nM

Question: What about the IC50 ([3]; use-dependent, […]) of the same compound?
Answer: 280 nM

Question: What does the source list for CC[C@H](C)[C@@H]1NC(=O)[C@@H]2CSSC[C@@H]3NC(=O)[C@H](C(C)C)NC(=O)[C@H](CC(C)C)NC(=O)[C@H](CC(N)=O)NC(=O)[C@@H]4CCCN4C(=O)[C@H](CCCNC(=N)N)NC(=O)[C@H](CSSC[C@H](NC(=O)[C@@H](N)CC(=O)O)C(=O)N[C@@H](CC(C)C)C(=O)NCC(=O)N[C@@H](Cc4ccccc4)C(=O)N[C@@H](CCSC)C(=O)N[C@@H](CCCNC(=N)N)C(=O)N[C@@H](CCCCN)C(=O)N2)NC(=O)[C@H](CSSC[C@@H](C(=O)N[C@@H](CCCCN)C(=O)N[C@@H](CCCCN)C(=O)N[C@H](C(=O)N[C@@H](Cc2cccc4ccccc24)C(=O)N[C@@H](Cc2c[nH]c4ccccc24)C(N)=O)C(C)C)NC(=O)[C@H](Cc2c[nH]c4ccccc24)NC(=O)[C@H](CCCCN)NC(=O)[C@H](Cc2c[nH]cn2)NC(=O)[C@H]([C@@H](C)O)NC(=O)[C@H](CCCNC(=N)N)NC(=O)[C@H](CO)NC3=O)NC(=O)[C@H](CCCCN)NC(=O)[C@H](CC(=O)O)NC(=O)[C@H](CC(N)=O)NC(=O)[C@H](CC(=O)O)NC(=O)[C@@H]2CCCN2C1=O [compound 99] (H-DCLGFMRKCIPDNDKCCRPNLVCSRTHKWCKKV[1Nal]W-NH2; disulfide 2-17, 9-23, 16-30)?
Answer: IC50 ([1]; IonWorks Quattro, use-dependent block, hNav1.7, read-out: IWQ Use Nav1.7): 110 nM; IC50 ([2]; use-dependent block, hNav1.5): 9140 nM; IC50 ([3]; use-dependent block, hNav1.3): 160 nM

Question: How did the IC50 [1] turn out when CC[C@H](C)[C@@H]1NC(=O)[C@@H]2CSSC[C@@H]3NC(=O)[C@H](C(C)C)NC(=O)[C@H](CC(C)C)NC(=O)[C@H](CC(N)=O)NC(=O)[C@@H]4CCCN4C(=O)[C@H](CCCNC(=N)N)NC(=O)[C@H](CSSC[C@H](NC(=O)[C@@H](N)CC(=O)O)C(=O)N[C@@H](CC(C)C)C(=O)NCC(=O)N[C@@H](Cc4ccccc4)C(=O)N[C@@H](CCSC)C(=O)N[C@@H](CCCNC(=N)N)C(=O)N[C@@H](CCCCN)C(=O)N2)NC(=O)[C@H](CSSC[C@@H](C(=O)N[C@@H](CCCCN)C(=O)N[C@@H](Cc2ccc(O)cc2)C(=O)N[C@H](C(=O)N[C@@H](C)C(N)=O)C(C)C)NC(=O)[C@H](Cc2c[nH]c4ccccc24)NC(=O)[C@H](CCCCN)NC(=O)[C@H](Cc2cnc[nH]2)NC(=O)[C@H]([C@@H](C)O)NC(=O)[C@H](CCCNC(=N)N)NC(=O)[C@H](CO)NC3=O)NC(=O)[C@H](CCCCN)NC(=O)[C@H](CC(=O)O)NC(=O)[C@H](CC(N)=O)NC(=O)[C@H](CC(=O)O)NC(=O)[C@@H]2CCCN2C1=O [compound 101] (H-DCLGFMRKCIPDNDKCCRPNLVCSRTHKWCKYVA-NH2; disulfide 2-17, 9-23, 16-30) was run?
Answer: 7190 nM

Question: And the IC50 ([2]; use-dependent, […])?
Answer: 9330 nM

Question: And the IC50 ([3]; use-dependent, […])?
Answer: 4760 nM

Question: With CC[C@H](C)[C@@H]1NC(=O)[C@@H]2CSSC[C@@H]3NC(=O)[C@H](C(C)C)NC(=O)[C@H](CC(C)C)NC(=O)[C@H](CC(N)=O)NC(=O)[C@@H]4CCCN4C(=O)[C@H](CCCNC(=N)N)NC(=O)[C@H](CSSC[C@H](NC(=O)[C@@H](N)CC(=O)O)C(=O)N[C@@H](CC(C)C)C(=O)NCC(=O)N[C@@H](Cc4ccccc4)C(=O)N[C@@H](CCSC)C(=O)N[C@@H](CCCNC(=N)N)C(=O)N[C@@H](CCCCN)C(=O)N2)NC(=O)[C@H](CSSC[C@@H](C(=O)N[C@@H](CCCCN)C(=O)N[C@@H](Cc2ccc(O)cc2)C(=O)N[C@H](C(=O)N[C@@H](Cc2ccccc2)C(N)=O)C(C)C)NC(=O)[C@H](Cc2c[nH]c4ccccc24)NC(=O)[C@H](CCCCN)NC(=O)[C@H](Cc2cnc[nH]2)NC(=O)[C@H]([C@@H](C)O)NC(=O)[C@H](CCCNC(=N)N)NC(=O)[C@H](CO)NC3=O)NC(=O)[C@H](CCCCN)NC(=O)[C@H](CC(=O)O)NC(=O)[C@H](CCCNC(=N)N)NC(=O)[C@H](CC(=O)O)NC(=O)[C@@H]2CCCN2C1=O [compound 103] (H-DCLGFMRKCIPDRDKCCRPNLVCSRTHKWCKYVF-NH2; disulfide 2-17, 9-23, 16-30) as the compound, how does the IC50 ([1]; IonWorks Quattro, Use, read-out: IWQ Use Nav1.7) read?
Answer: 160 nM

Question: What about the IC50 ([2]; Use) of the same compound?
Answer: 16000 nM

Question: And the IC50 ([3]; Use)?
Answer: 220 nM

Question: How did the IC50 ([1]; Table 24, IonWorks Quattro, use, […], read-out: IWQ Use Nav1.7) turn out when CC[C@H](C)[C@@H]1NC(=O)[C@@H]2CSSC[C@@H]3NC(=O)[C@H](C(C)C)NC(=O)[C@H](CC(C)C)NC(=O)[C@H](CC(N)=O)NC(=O)[C@@H]4CCCN4C(=O)[C@H](CCCNC(=N)N)NC(=O)[C@H](CSSC[C@H](NC(=O)[C@@H](N)CC(=O)O)C(=O)N[C@@H](CC(C)C)C(=O)NCC(=O)N[C@@H](Cc4ccccc4)C(=O)N[C@@H](CCSC)C(=O)N[C@@H](CCCNC(=N)N)C(=O)N[C@@H](CCCCN)C(=O)N2)NC(=O)[C@H](CSSC[C@@H](C(=O)N[C@@H](CCCCN)C(=O)N[C@@H](Cc2ccc(O)cc2)C(=O)N[C@H](C(=O)N[C@@H](Cc2ccccc2)C(N)=O)C(C)C)NC(=O)[C@H](CCCNC(=N)N)NC(=O)[C@H](CCCCN)NC(=O)[C@H](Cc2cnc[nH]2)NC(=O)[C@H]([C@@H](C)O)NC(=O)[C@H](CCCNC(=N)N)NC(=O)[C@H](CO)NC3=O)NC(=O)[C@H](CCCCN)NC(=O)[C@H](CC(=O)O)NC(=O)[C@H](CC(N)=O)NC(=O)[C@H](CC(=O)O)NC(=O)[C@@H]2CCCN2C1=O [compound 104] (H-DCLGFMRKCIPDNDKCCRPNLVCSRTHKRCKYVF-NH2; disulfide 2-17, 9-23, 16-30) was run?
Answer: 9730 nM

Question: What about the IC50 ([2]; Table 24, use, […]) of the same compound?
Answer: 18800 nM

Question: And the IC50 ([3]; Table 24, use, […])?
Answer: 11400 nM

Question: CC[C@H](C)[C@@H]1NC(=O)[C@@H]2CSSC[C@@H]3NC(=O)[C@H](C(C)C)NC(=O)[C@H](CC(C)C)NC(=O)[C@H](CC(N)=O)NC(=O)[C@@H]4CCCN4C(=O)[C@H](CCCNC(=N)N)NC(=O)[C@H](CSSC[C@H](NC(=O)[C@@H](N)CC(=O)O)C(=O)N[C@@H](CC(C)C)C(=O)NCC(=O)N[C@@H](Cc4ccccc4)C(=O)N[C@@H](CCSC)C(=O)N[C@@H](CCCNC(=N)N)C(=O)N[C@@H](CCCCN)C(=O)N2)NC(=O)[C@H](CSSC[C@@H](C(=O)N[C@@H](CCCCN)C(=O)N[C@@H](Cc2ccc(O)cc2)C(=O)N[C@H](C(=O)N[C@@H](Cc2ccccc2)C(N)=O)C(C)C)NC(=O)[C@H](Cc2c[nH]c4ccccc24)NC(=O)[C@H](CCCCN)NC(=O)[C@H](Cc2ccccc2)NC(=O)[C@H]([C@@H](C)O)NC(=O)[C@H](CCCNC(=N)N)NC(=O)[C@H](CO)NC3=O)NC(=O)[C@H](CCCCN)NC(=O)[C@H](CC(=O)O)NC(=O)[C@H](CC(N)=O)NC(=O)[C@H](CC(=O)O)NC(=O)[C@@H]2CCCN2C1=O [compound 109] (H-DCLGFMRKCIPDNDKCCRPNLVCSRTFKWCKYVF-NH2; disulfide 2-17, 9-23, 16-30) was tested. Which IC50 ([1]; Table 23, IonWorks Quattro, use, […], read-out: IWQ Use Nav1.7) did it give?
Answer: 220 nM

Question: And the IC50 ([2]; Table 23, use, […])?
Answer: 2060 nM

Question: What about the IC50 ([3]; Table 23, use, […]) of the same compound?
Answer: 530 nM
